This is an account of results in patent publication US12291502B2, “Topoisomerase II-alpha inhibitors and methods of treating cancer using the same” (The Regents of the University of Colorado, priority 2019, dated 2025).

Entries after “also recorded” stand apart in the source; their conditions may differ.

Series [1] in a line: LCMS quantitation of compound in harvested tumors. Type of series: in vivo, athymic nude mouse. To be noted: i.p. 50 mg/kg, 5× per week over 28 days. How it is done: Mass spectrometry analysis and Sample preparation. Tumor tissue was isolated, flash frozen in liquid nitrogen, and stored at −80° C. until analysis. Prior to LC-MS analysis, samples were milled in liquid nitrogen and weighed. Tissue was then placed in tubes containing ˜50-75 μL of glass beads (NextAdvance SKU GB10), resuspended to 15 mg/ml in methanol:acetonitrile:water (5:3:2, v:v:v) and processed using a Bullet Blender® (Next Advance, Troy, NY, USA) for 5 minutes at level 4 at 4° C. Suspensions were then vortexed continuously for 30 min at 4° C. Insoluble material was removed by centrifugation at 10,000 g for 10 min at 4° C. and supernatants were isolated for metabolomics analysis by UHPLC-MS. Standard curves were prepared by serial dilution of the purified AA-29-141 compound into a pool of vehicle-treated tumor extract.
UHPLC-MS analysis for quantification of 42 in tumor tissue. Analyses were performed as previously published. Briefly, the analytical platform employs a Vanquish UHPLC system (Thermo Fisher Scientific, San Jose, CA, USA) coupled online to a Q Exactive mass spectrometer (Thermo Fisher Scientific, San Jose, CA, USA). […]

Series [2] is described as follows: Water solubility (stated). It counts as physicochemical.
A further series relates to tumor xenograft. The series can be described thus: Tumor xenograft study, tumor growth. Type of series: in vivo, athymic nude mouse. To be noted: i.p. 50 mg/kg, 5× per week over 28 days. The protocol:
Finally, a major goal of this drug design approach was to improve the in vivo physicochemical properties of TOP2A inhibitors compared to the natural product neo. Therefore, an in vivo study was conducted using the athymic nude mouse tumor xenograft model to determine if one of these drug leads could accumulate in tumors when administered via intraperitoneal injection (i.p.). […] Thus, compound 42 was administered i.p. at 50 mg/kg, 5× per week over 28 days.

Series [3] concerns H2AX S139 phosphorylation (γ-H2AX) in colon cancer cell lines HT29 and SW620. Description: γ-H2AX DNA damage assay (immunofluorescence). Type of series: cell-based. To be noted: 0-40 μM for Neo, 7, BAP1, 5-100 μM for etoposide. How it is done:
γ-H2AXDNA damage assay. Colon cancer cell lines HT29 and SW620 were plated to black clear bottom 96 well plates at 20,000 cells/well in 100 μL of phenol red free medium. […] Cells were fixed with 4% paraformaldehyde at room temp for 20 min, washed 3 times with 400 μL/well of PBS, permeabilized and blocked with 100 μL of 3% BSA and 0.1% IGEPAL in PBS for 20 min. Cells were then incubated in γ-H2AX primary antibody (Cell Signaling, 1:400 dilution) at 4° C. overnight, washed 4 times with PBS, and incubated with FITC conjugated anti-rabbit secondary antibody (Cell Signaling, 1:200 dilution) at room temp for 1 hour, and washed 4 times with PBS. Cells were stained with 10 μM of Hoechst 33342 at room temp for 10 min, washed 4 times with PBS before imaged with a 20× objective using PerkinElmer Operetta imager.

For `O=C(CCN1CCOCC1)Nc1ccc2c(-c3cc(F)ccc3O)ccnc2c1O` [Analog 42], in series [1], the “quantity of compound in tumors (LCMS/HRMS)” value is “significant HRMS quantity”. In series [2], the “water solubility, in words” value is listed as “water soluble; also recorded: significantly improved water solubility”. For the same compound, in the series with tumor xenograft, the tumor growth result is listed as “no loss of any tumor growth was observed”.

For `CC(=O)Nc1ccc2c(-c3cc(F)ccc3O)ccnc2c1O` [Analog 7], the “DNA double stranded breaks (γ-H2AX)” value in series [3] is on record as “do not damage DNA; also recorded: do not cause DNA DSBs”.

With `Cn1ccc2c(c1=O)C(=O)c1nccc3c1C2NC1=CCC=CC13` (stereo not drawn) [neo, neoamphimedine, reference compound], the “DNA double stranded breaks (γ-H2AX)” value is reported as “do not damage DNA” in series [3] and “do not cause DNA DSBs” in series [3] (listed as Neo).
